Laboratory results published in patent US20150119422A1, “SIMETHICONE FORMULATION” (DISPHAR INTERNATIONAL B.V., priority 2011, published 2015).
Counter-ions that a name gives are not always drawn.

Format: physicochemical
Conditions: pH range of 1 to 7
Experimental: Dissolution studies for determining release of the active ingredient at various pHs were carried out using a TDT-08 L dissolution apparatus from Electrolab®.
The above-mentioned tablets were studied for release profile, at 30 minutes, in solutions of varied pH such as 1.2, 4.5 and 6.8 respectively in aqueous solutions of 0.1 N HCl, acetate buffer and phosphate buffer.

## CN(C)C(=O)C(CCN1CCC(O)(c2ccc(Cl)cc2)CC1)(c1ccccc1)c1ccccc1 [loperamide hydrochloride]
  pH dependence of release / dissolution: pH dependent dissolution characteristics
